Test [1] has as its target T1, Protein cereblon/Fibroblast growth factor receptor 1 (Homo sapiens) (UniProt P11362+Q96SW2). Kind of test: PROTAC activity at FGFR1/CRBN in human MCF7 cells assessed as FGFR1 degradation at 100 nM incubated for 6 hrs by Western blot analysis. It is filed as cell-based. On the technique in general: A western blot detects proteins with antibodies after separation by electrophoresis.

Test [2] concerns the target T1, Protein cereblon/Fibroblast growth factor receptor 1 (Homo sapiens). Kind of test: PROTAC activity at FGFR1/CRBN in human MCF7 cells assessed as FGFR1 degradation at 0.1 to 10 uM incubated for 6 hrs by Western blot analysis. It is filed as cell-based. The conditions noted are these: dose 0.1-10 µM.
The target of test [3] is Protein cereblon/Fibroblast growth factor receptor 2 (Homo sapiens) (UniProt P21802+Q96SW2). Kind of test: PROTAC activity at FGFR2/CRBN in human MCF7 cells assessed as FGFR2 degradation at 0.1 to 10 uM incubated for 6 hrs by Western blot analysis. It is filed as cell-based. The conditions noted are these: dose 0.1-10 µM.
Test [4] addresses Protein cereblon/Fibroblast growth factor receptor 3 (Homo sapiens) (UniProt P22607+Q96SW2). Kind of test: PROTAC activity at FGFR3/CRBN in human MCF7 cells assessed as FGFR3 degradation at 0.1 to 10 uM incubated for 6 hrs by Western blot analysis. It is filed as cell-based. The conditions noted are these: dose 0.1-10 µM.
The target of test [5] is Protein cereblon/Fibroblast growth factor receptor 4 (Homo sapiens) (UniProt P22455+Q96SW2). Kind of test: PROTAC activity at FGFR4/CRBN in human MCF7 cells assessed as FGFR4 degradation at 0.1 to 10 uM incubated for 6 hrs by Western blot analysis. The settings on record: dose 0.1-10 µM. It counts as cell-based.
The target of test [6] is von Hippel-Lindau disease tumor suppressor/Fibroblast growth factor receptor 1 (Homo sapiens) (UniProt P11362+P40337). The test is described as follows: PROTAC activity at FGFR1/VHL in human MCF7 cells assessed as FGFR1 degradation at 100 nM incubated for 6 hrs by Western blot analysis. It is filed as cell-based.
The next test relates to DMS-114. Kind of test: Antiproliferative activity against human DMS-114 cells assessed as inhibition of cell growth incubated for 120 hrs by MTT assay. It counts as functional, cell-based. The conditions noted are these: DMS-114, 120 h. (Formazan colour is commonly taken as a measure of viable cells.)
The next test relates to NCI-H1581. Kind of test: Antiproliferative activity against human NCI-H1581 cells assessed as inhibition of cell growth incubated for 120 hrs by MTT assay. The conditions noted are these: NCI-H1581, 120 h. It counts as functional, cell-based.
The target of test [7] is T1, Protein cereblon/Fibroblast growth factor receptor 1 (Homo sapiens). The test is described as follows: PROTAC activity at FGFR1/CRBN in human DMS-114 cells assessed as FGFR1 degradation at 0.1 to 10 uM incubated for 6 hrs by Western blot analysis. It counts as cell-based. The conditions noted are these: dose 0.1-10 µM.
Test [8] has the same target. Kind of test: PROTAC activity at FGFR1/CRBN in human NCI-H1581 cells assessed as FGFR1 degradation at 0.1 to 10 uM incubated for 6 hrs by Western blot analysis. It counts as cell-based. The settings on record: dose 0.1-10 µM.

Active and inactive are the calls of the source. The calls are words filed in the database; no cut-off is given here.

T1 sequence (P11362 whole entry, looked up): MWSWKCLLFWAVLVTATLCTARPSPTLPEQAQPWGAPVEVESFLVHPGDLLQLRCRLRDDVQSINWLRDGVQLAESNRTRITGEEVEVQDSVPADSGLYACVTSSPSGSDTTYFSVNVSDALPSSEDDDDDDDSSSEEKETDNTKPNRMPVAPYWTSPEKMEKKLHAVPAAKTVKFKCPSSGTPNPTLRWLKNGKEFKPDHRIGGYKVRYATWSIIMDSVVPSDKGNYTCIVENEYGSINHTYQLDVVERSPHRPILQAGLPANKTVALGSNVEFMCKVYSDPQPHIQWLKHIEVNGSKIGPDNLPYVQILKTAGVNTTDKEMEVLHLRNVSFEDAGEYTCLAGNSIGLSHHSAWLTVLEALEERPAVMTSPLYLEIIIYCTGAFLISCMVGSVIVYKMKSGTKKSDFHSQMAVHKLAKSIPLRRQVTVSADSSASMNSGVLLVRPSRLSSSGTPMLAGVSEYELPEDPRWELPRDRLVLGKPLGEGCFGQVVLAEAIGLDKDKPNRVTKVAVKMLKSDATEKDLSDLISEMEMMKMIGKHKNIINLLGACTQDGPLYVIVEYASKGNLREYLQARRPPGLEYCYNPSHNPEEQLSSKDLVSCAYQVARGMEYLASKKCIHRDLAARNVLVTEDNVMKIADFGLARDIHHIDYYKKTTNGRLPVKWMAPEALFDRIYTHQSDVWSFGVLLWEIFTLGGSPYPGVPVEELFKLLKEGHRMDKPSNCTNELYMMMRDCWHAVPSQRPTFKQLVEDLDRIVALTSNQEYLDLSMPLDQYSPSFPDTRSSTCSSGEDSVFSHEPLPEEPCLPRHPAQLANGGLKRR
T1 sequence (Q96SW2 whole entry, looked up): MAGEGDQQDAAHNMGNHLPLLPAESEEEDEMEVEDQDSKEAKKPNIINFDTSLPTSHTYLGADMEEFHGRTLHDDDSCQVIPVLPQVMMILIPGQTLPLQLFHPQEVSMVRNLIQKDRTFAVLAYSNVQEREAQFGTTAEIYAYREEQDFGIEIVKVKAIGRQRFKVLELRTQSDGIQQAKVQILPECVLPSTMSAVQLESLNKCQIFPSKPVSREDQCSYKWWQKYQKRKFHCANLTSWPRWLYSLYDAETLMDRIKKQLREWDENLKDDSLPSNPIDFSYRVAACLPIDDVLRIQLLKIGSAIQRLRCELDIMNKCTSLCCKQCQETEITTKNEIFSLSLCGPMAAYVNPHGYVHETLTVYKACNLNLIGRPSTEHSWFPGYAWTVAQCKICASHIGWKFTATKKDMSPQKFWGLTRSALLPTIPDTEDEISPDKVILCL
Chain of Protein cereblon/Fibroblast growth factor receptor 3 (Homo sapiens) (P22607 whole entry, looked up): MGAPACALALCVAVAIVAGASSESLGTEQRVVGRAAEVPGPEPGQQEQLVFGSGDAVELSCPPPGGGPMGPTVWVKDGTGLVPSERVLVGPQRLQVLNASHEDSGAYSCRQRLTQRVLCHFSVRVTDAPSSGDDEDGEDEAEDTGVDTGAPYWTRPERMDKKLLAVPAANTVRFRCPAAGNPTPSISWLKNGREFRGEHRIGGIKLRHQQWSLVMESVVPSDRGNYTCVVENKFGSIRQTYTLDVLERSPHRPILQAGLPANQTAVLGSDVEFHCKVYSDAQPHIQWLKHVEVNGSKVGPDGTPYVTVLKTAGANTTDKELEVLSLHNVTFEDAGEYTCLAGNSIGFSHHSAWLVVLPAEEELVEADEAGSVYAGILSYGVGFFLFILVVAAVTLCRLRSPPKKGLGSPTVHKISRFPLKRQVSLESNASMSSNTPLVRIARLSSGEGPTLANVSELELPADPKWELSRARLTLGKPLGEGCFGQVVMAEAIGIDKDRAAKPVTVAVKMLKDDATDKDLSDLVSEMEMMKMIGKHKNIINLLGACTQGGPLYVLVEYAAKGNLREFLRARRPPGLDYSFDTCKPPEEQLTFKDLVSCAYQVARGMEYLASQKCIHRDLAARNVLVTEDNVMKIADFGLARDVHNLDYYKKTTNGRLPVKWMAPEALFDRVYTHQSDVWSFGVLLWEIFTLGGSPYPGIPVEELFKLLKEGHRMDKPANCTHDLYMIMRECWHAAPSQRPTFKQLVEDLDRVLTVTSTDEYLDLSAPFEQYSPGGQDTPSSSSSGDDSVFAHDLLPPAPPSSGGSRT
Chain of Protein cereblon/Fibroblast growth factor receptor 3 (Homo sapiens) (Q96SW2 whole entry, looked up): as the sequence (Q96SW2 whole entry, looked up) above
Chain of Protein cereblon/Fibroblast growth factor receptor 2 (Homo sapiens) (P21802 22-821 limits assumed): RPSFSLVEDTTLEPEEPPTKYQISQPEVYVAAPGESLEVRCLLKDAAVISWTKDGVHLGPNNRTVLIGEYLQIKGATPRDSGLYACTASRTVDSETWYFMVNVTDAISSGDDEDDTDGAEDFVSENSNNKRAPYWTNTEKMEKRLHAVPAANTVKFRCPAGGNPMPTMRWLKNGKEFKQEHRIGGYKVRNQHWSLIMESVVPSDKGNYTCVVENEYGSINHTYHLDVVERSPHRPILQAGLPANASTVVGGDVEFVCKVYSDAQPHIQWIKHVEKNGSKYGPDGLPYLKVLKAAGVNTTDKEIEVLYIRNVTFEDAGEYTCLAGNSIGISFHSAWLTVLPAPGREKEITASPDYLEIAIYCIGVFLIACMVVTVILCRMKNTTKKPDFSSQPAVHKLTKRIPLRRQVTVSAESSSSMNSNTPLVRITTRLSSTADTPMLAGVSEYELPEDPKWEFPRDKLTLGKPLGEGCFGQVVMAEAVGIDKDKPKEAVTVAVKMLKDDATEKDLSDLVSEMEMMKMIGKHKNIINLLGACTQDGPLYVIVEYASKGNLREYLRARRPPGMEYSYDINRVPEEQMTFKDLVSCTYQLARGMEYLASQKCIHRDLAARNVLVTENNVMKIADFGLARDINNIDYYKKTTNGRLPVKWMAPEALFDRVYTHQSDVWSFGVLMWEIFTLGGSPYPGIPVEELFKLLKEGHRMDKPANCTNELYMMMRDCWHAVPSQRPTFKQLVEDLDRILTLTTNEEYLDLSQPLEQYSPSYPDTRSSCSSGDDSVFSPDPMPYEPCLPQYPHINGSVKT
Chain of Protein cereblon/Fibroblast growth factor receptor 2 (Homo sapiens) (Q96SW2 whole entry partner): as the sequence (Q96SW2 whole entry, looked up) above
Chain of von Hippel-Lindau disease tumor suppressor/Fibroblast growth factor receptor 1 (Homo sapiens) (P11362 22-822 limits assumed): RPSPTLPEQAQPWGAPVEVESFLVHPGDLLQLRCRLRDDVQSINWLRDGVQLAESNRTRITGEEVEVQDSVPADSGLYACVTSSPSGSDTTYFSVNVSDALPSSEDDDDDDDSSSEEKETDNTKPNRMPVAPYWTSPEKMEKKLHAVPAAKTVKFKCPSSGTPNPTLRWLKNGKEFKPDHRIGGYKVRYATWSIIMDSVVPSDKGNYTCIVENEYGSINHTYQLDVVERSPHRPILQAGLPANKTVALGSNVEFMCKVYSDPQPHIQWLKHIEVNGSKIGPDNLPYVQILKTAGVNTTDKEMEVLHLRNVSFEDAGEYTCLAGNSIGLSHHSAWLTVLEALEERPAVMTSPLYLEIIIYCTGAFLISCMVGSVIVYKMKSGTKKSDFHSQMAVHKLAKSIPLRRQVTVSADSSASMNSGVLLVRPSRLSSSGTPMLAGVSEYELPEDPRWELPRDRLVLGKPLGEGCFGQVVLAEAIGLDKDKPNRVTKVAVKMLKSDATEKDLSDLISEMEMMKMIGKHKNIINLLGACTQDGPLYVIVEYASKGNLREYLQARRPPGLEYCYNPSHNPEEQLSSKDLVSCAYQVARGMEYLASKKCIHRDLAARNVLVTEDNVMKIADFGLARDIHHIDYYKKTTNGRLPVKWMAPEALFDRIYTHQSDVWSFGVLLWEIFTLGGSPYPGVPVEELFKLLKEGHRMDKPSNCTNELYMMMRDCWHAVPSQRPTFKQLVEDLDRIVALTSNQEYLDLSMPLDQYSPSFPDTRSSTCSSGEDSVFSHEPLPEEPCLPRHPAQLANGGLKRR
Chain of von Hippel-Lindau disease tumor suppressor/Fibroblast growth factor receptor 1 (Homo sapiens) (P40337 whole entry partner): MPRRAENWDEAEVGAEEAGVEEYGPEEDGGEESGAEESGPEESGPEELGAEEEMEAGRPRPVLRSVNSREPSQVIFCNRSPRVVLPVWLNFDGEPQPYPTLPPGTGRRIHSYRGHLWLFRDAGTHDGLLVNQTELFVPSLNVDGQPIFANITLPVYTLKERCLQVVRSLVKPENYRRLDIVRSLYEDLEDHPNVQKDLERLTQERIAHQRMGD
Chain of Protein cereblon/Fibroblast growth factor receptor 4 (Homo sapiens) (P22455 whole entry, looked up): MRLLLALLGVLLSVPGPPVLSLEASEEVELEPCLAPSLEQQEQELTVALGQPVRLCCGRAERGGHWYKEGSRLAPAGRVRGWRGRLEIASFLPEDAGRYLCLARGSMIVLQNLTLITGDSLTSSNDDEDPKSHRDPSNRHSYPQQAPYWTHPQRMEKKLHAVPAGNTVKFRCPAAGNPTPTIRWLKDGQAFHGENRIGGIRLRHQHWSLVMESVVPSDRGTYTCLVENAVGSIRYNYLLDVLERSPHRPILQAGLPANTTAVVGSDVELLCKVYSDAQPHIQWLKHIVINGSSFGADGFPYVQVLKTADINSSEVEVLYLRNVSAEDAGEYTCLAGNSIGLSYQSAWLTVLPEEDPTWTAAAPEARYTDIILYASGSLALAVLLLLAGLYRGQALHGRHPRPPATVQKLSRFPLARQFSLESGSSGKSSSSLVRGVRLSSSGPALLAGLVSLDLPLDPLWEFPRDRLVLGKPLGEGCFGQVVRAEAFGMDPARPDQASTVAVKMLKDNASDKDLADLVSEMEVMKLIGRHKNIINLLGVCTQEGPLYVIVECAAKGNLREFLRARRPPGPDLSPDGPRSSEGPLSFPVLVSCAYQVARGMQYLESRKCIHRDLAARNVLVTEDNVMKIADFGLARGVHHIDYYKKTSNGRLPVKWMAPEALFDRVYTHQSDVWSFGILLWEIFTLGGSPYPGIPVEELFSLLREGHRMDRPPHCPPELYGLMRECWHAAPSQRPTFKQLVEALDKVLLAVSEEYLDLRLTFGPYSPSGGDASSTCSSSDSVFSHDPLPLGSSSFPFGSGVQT
Chain of Protein cereblon/Fibroblast growth factor receptor 4 (Homo sapiens) (Q96SW2 whole entry, looked up): as the sequence (Q96SW2 whole entry, looked up) above

`COc1cc(CCc2cc(NC(=O)c3ccc(N4C[C@@H](C)N(CC(=O)N/N=C/c5ccc(OCCOCCOCC(=O)NCC#Cc6cccc7c6CN(C6CCC(=O)NC6=O)C7=O)cc5)[C@@H](C)C4)cc3)n[nH]2)cc(OC)c1` (stereo not given in full): the result in test [1] was Active.
Consider `COc1cc(CCc2cc(NC(=O)c3ccc(N4C[C@@H](C)N(CC(=O)N/N=C/c5ccc(OCCOCC(=O)NCC#Cc6cccc7c6CN(C6CCC(=O)NC6=O)C7=O)cc5)[C@@H](C)C4)cc3)n[nH]2)cc(OC)c1` (stereo not given in full), for which the result in [2] was Active. The result in [3], in test [4] and in test [5] was inactive.
Consider `COc1cc(CCc2cc(NC(=O)c3ccc(N4C[C@@H](C)N(CC(=O)N/N=C\c5ccc(OCCCCC(=O)N[C@H](C(=O)N6C[C@H](O)C[C@H]6C(=O)N[C@@H](C)c6ccc(-c7scnc7C)cc6)C(C)(C)C)cc5)[C@@H](C)C4)cc3)n[nH]2)cc(OC)c1`, for which the result in test [6] was Active.
On the same count and under the same terms, then `COc1cc(CCc2cc(NC(=O)c3ccc(N4C[C@@H](C)N(CC(=O)N/N=C/c5ccc(OCCOCCOCCOCCOCC(=O)N[C@H](C(=O)N6C[C@H](O)C[C@H]6C(=O)N[C@@H](C)c6ccc(-c7scnc7C)cc6)C(C)(C)C)cc5)[C@@H](C)C4)cc3)n[nH]2)cc(OC)c1`, with “Active”.
Regarding `COc1cc(CCc2cc(NC(=O)c3ccc(N4C[C@@H](C)N(CC(=O)N/N=C/c5ccc(OCCOCCOCCOCCOCCOCC(=O)NCC#Cc6cccc7c6CN(C6CCC(=O)NC6=O)C7=O)cc5)[C@@H](C)C4)cc3)n[nH]2)cc(OC)c1` (stereo not given in full), in test [2], the outcome was Active. For the same compound, the result in [3], in [4] and in test [5] was inactive.
Consider `COc1cc(CCc2cc(NC(=O)c3ccc(N4C[C@@H](C)N(CC(=O)N/N=C\c5ccc(OCC(=O)N[C@H](C(=O)N6C[C@H](O)C[C@H]6C(=O)N[C@@H](C)c6ccc(-c7scnc7C)cc6)C(C)(C)C)cc5)[C@@H](C)C4)cc3)n[nH]2)cc(OC)c1`, for which the result in test [6] was Active.
As for `COc1cc(CCc2cc(NC(=O)c3ccc(N4C[C@@H](C)N(CC(=O)NCCc5ccc(OCC(=O)N[C@H](C(=O)N6C[C@H](O)C[C@H]6C(=O)N[C@@H](C)c6ccc(-c7scnc7C)cc6)C(C)(C)C)cc5)[C@@H](C)C4)cc3)n[nH]2)cc(OC)c1`, the IC50 was determined as 139 nM with DMS-114 and 160 nM in the test with NCI-H1581.
Take `COc1cc(CCc2cc(NC(=O)c3ccc(N4C[C@@H](C)N[C@@H](C)C4)cc3)n[nH]2)cc(OC)c1` [FEXAGRATINIB]: the IC50 is 14 nM in the test on DMS-114 and 4 nM in the test with NCI-H1581.
In the case of `COc1cc(CCc2cc(NC(=O)c3ccc(N4C[C@@H](C)N(CC(=O)N/N=C/c5ccc(OCCOCCOCCOCC(=O)N[C@H](C(=O)N6C[C@H](O)C[C@H]6C(=O)N[C@@H](C)c6ccc(-c7scnc7C)cc6)C(C)(C)C)cc5)[C@@H](C)C4)cc3)n[nH]2)cc(OC)c1`, in test [6], the outcome was Active.
In the case of `COc1cc(CCc2cc(NC(=O)c3ccc(N4C[C@@H](C)N(CC(=O)N/N=C/c5ccc(OCCOCCOCCOCC(=O)NCC#Cc6cccc7c6CN(C6CCC(=O)NC6=O)C7=O)cc5)[C@@H](C)C4)cc3)n[nH]2)cc(OC)c1` (stereo not given in full), in test [2], the result was Active. In addition, the outcome in [3], in test [4] and in test [5] was inactive.
Take `COc1cc(CCc2cc(NC(=O)c3ccc(N4C[C@@H](C)N(CC(=O)N/N=C/c5ccc(OCCCCC(=O)NCC#Cc6cccc7c6CN(C6CCC(=O)NC6=O)C7=O)cc5)[C@@H](C)C4)cc3)n[nH]2)cc(OC)c1` (stereo not given in full): in [1], the result was Active.
Turning to `COc1cc(CCc2cc(NC(=O)c3ccc(N4C[C@@H](C)N(CC(=O)NCCc5ccc(OCCOCCOCC(=O)NC#Cc6cccc7c6CN(C6CCC(=O)NC6=O)C7=O)cc5)[C@@H](C)C4)cc3)n[nH]2)cc(OC)c1` (stereo not given in full), the result in test [2] was Active. Also, the result in test [7] and in [8] was inactive.

Broadly, the IC50 is the concentration at which inhibition is half-maximal.

The values are drawn from ChEMBL document CHEMBL5223126, “Development of selective FGFR1 degraders using a Rapid synthesis of proteolysis targeting Chimera (Rapid-TAC) platform” (Bioorg Med Chem Lett, 2022).
